In patent publication US11261196B2, “Salt serving as AKT inhibitor and crystal thereof” (HARBIN ZHENBAO PHARMACEUTICAL CO., LTD., priority 2017, dated 2022):
Entries after “also recorded” stand apart in the source; their conditions may differ.

Tests used:
[1] = Stability test of the crystal form (accelerated conditions, HPLC related substances); assay type: physicochemical
Method: […] The sample was analyzed after 10 days, 1 month and 2 months.
1.2 Preparation of Diluent and Mobile Phase
Diluent: acetonitrile:water (1:1) was used as diluent
For example: 100 mL of pure water and 100 mL of pure acetonitrile were mixed in a glass bottle, followed by degassing with ultrasound for 10 minutes, then cooled down to room temperature.
Mobile phase A: 0.1% phosphoric acid aqueous solution
For example: 2.0 mL phosphoric acid was added into 2000 mL water, followed by ultrasound treatment for 10 minutes, the solution was mixed well and cooled down to room temperature as mobile phase A.
Mobile phase B: acetonitrile
Acetonitrile was used as mobile phase B.
1.3 Preparation of the Reference Solution (0.25 mg/mL Calculated by the Free Base)
The sample of the 0th day was used as reference sample, 16 mL of diluent was added thereto, followed by ultrasound treatment for 5 minutes, and the solution was mixed well. Then the solution was further subjected to 1-fold dilution and marked as STD-1 and STD-2, respectively.
1.4 Preparation of Sample Solution for Testing Sensitivity
Reference solution STD-1 (the sample of the 0th day) was subjected to 2000-fold dilution, noted as LOQ.
1.5 Preparation of the Sample Solution (0.25 mg/mL Calculated by the Freebase)
The sample was taken out and restored to room temperature and 16 mL diluent was added for dissolution. The solution was further subjected to 1-fold dilution to be used as sample solution to detect the content of related substances.

[2] = system: prostate cancer cell LNCaP overexpressing AKT; test: Cytoactive test, cell proliferation (CellTiter-Glo); assay type: cell-based
Excerpt: This experiment intends to study the inhibitory effect of the compound of formula (I) on the prostate cancer cell LNCaP overexpressing AKT.
The content of ATP directly reflects the number and state of cells, and the number of living cells can be detected by quantitatively measuring ATP. The live cell detection kit contains luciferase and its substrate, with the participation of ATP, luciferase can catalyze the substrate and emit a stable optical signal, the amount of ATP in the cell can be determined by detecting the strength of the signal. Wherein the light signal is proportional to the amount of ATP in the cell, and ATP is positively correlated to the number of living cells, so that the proliferation of the cell can be detected. The detection plate was analyzed by using Envision from PE Company.
LNCaP cells were seeded in a 384-well plate, each well contained 1000 cells.
The cell plate was placed in a carbon dioxide incubator overnight.
The compound was 3-fold diluted with Bravo into 10 compound concentrations, and a double duplicate well experiment was set up.
The compound was transferred to the cell plate at an initial concentration of 10 μM. […]
Promega CellTiter-Glo reagent was added to the cell plate, and incubated at room temperature for 10 minutes to stabilize the luminescence signal, which was read by PerkinElmer Envision multi-label analyzer.

Cc1cnn2c1-c1cc(C(=O)N[C@H](CN)Cc3cccc(F)c3)sc1CCC2.O=C(O)/C=C\C(=O)O
Impurity content, RRT 0.95 ([1]; 40° C./75%RH, 1M): 0.05% | Impurity content, RRT 0.98 ([1]; 40° C./75%RH, 1M): 0.10% | Impurity content, RRT 0.99 ([1]; 40° C./75%RH, 1M): 1.36% | Impurity content, RRT 1.02 ([1]; 40° C./75%RH, 1M): 0.22% | Impurity content, RRT 1.04 ([1]; 40° C./75%RH, 1M): 0.05% | Impurity content, RRT 1.06 ([1]; 40° C./75%RH, 1M): 0.05% | Impurity content, RRT 1.21 ([1]; 40° C./75%RH, 1M): 1.50% | Impurity content, RRT 1.26 ([1]; 40° C./75%RH, 1M): 0.07% | TRS (total impurity content) ([1]; 40° C./75%RH, 1M): 3.38% | Impurity content, RRT 0.95 ([1]; 40° C./75%RH, 2M): 0.04% | Impurity content, RRT 0.98 ([1]; 40° C./75%RH, 2M): 0.10% | Impurity content, RRT 0.99 ([1]; 40° C./75%RH, 2M): 1.31% | Impurity content, RRT 1.02 ([1]; 40° C./75%RH, 2M): 0.20% | Impurity content, RRT 1.04 ([1]; 40° C./75%RH, 2M): 0.04% | Impurity content, RRT 1.06 ([1]; 40° C./75%RH, 2M): 0.09% | Impurity content, RRT 1.21 ([1]; 40° C./75%RH, 2M): 1.44% | Impurity content, RRT 1.26 ([1]; 40° C./75%RH, 2M): 0.06% | Impurity content, RRT 1.43 ([1]; 40° C./75%RH, 2M): 0.09% | TRS (total impurity content) ([1]; 40° C./75%RH, 2M): 3.37% | Impurity content, RRT 0.98 ([1]; 40° C./75%RH, 10D): 0.10% | Impurity content, RRT 0.99 ([1]; 40° C./75%RH, 10D): 1.40% | Impurity content, RRT 1.02 ([1]; 40° C./75%RH, 10D): 0.24% | Impurity content, RRT 1.04 ([1]; 40° C./75%RH, 10D): 0.04% | Impurity content, RRT 1.21 ([1]; 40° C./75%RH, 10D): 1.50% | Impurity content, RRT 1.26 ([1]; 40° C./75%RH, 10D): 0.06% | TRS (total impurity content) ([1]; 40° C./75%RH, 10D): 3.35% | Impurity content, RRT 0.95 ([1]; 60° C./75%RH, 1M): 0.05% | Impurity content, RRT 0.98 ([1]; 60° C./75%RH, 1M): 0.10% | Impurity content, RRT 0.99 ([1]; 60° C./75%RH, 1M): 1.27% | Impurity content, RRT 1.02 ([1]; 60° C./75%RH, 1M): 0.19% | Impurity content, RRT 1.04 ([1]; 60° C./75%RH, 1M): 0.08% | Impurity content, RRT 1.06 ([1]; 60° C./75%RH, 1M): 0.34% | Impurity content, RRT 1.21 ([1]; 60° C./75%RH, 1M): 1.44% | Impurity content, RRT 1.26 ([1]; 60° C./75%RH, 1M): 0.10% | TRS (total impurity content) ([1]; 60° C./75%RH, 1M): 3.57% | Impurity content, RRT 0.95 ([1]; 60° C./75%RH, 2M): 0.04% | Impurity content, RRT 0.98 ([1]; 60° C./75%RH, 2M): 0.10% | Impurity content, RRT 0.99 ([1]; 60° C./75%RH, 2M): 1.22% | Impurity content, RRT 1.02 ([1]; 60° C./75%RH, 2M): 0.24% | Impurity content, RRT 1.04 ([1]; 60° C./75%RH, 2M): 0.08% | Impurity content, RRT 1.06 ([1]; 60° C./75%RH, 2M): 0.45% | Impurity content, RRT 1.21 ([1]; 60° C./75%RH, 2M): 1.43% | Impurity content, RRT 1.26 ([1]; 60° C./75%RH, 2M): 0.10% | Impurity content, RRT 1.33 ([1]; 60° C./75%RH, 2M): 0.06% | Impurity content, RRT 1.36 ([1]; 60° C./75%RH, 2M): 0.08% | Impurity content, RRT 1.43 ([1]; 60° C./75%RH, 2M): 0.05% | TRS (total impurity content) ([1]; 60° C./75%RH, 2M): 3.85% | Impurity content, RRT 0.98 ([1]; 60° C./75%RH, 10D): 0.10% | Impurity content, RRT 0.99 ([1]; 60° C./75%RH, 10D): 1.36% | Impurity content, RRT 1.02 ([1]; 60° C./75%RH, 10D): 0.24% | Impurity content, RRT 1.04 ([1]; 60° C./75%RH, 10D): 0.07% | Impurity content, RRT 1.06 ([1]; 60° C./75%RH, 10D): 0.15% | Impurity content, RRT 1.21 ([1]; 60° C./75%RH, 10D): 1.46% | Impurity content, RRT 1.26 ([1]; 60° C./75%RH, 10D): 0.09% | TRS (total impurity content) ([1]; 60° C./75%RH, 10D): 3.47% | Stability ([1]; high temperature and high humidity): stable under the conditions of high temperature and high humidity; also recorded: relatively stable, and less affected by heat and humidity | Impurity content, RRT 0.95 ([1]; −20° C., 1M): 0.04% | Impurity content, RRT 0.98 ([1]; −20° C., 1M): 0.11% | Impurity content, RRT 0.99 ([1]; −20° C., 1M): 1.38% | Impurity content, RRT 1.02 ([1]; −20° C., 1M): 0.22% | Impurity content, RRT 1.04 ([1]; −20° C., 1M): 0.05% | Impurity content, RRT 1.21 ([1]; −20° C., 1M): 1.52% | Impurity content, RRT 1.26 ([1]; −20° C., 1M): 0.07% | TRS (total impurity content) ([1]; −20° C., 1M): 3.38% | Impurity content, RRT 0.95 ([1]; −20° C., 2M): 0.04% | Impurity content, RRT 0.98 ([1]; −20° C., 2M): 0.10% | Impurity content, RRT 0.99 ([1]; −20° C., 2M): 1.35% | Impurity content, RRT 1.02 ([1]; −20° C., 2M): 0.19% | Impurity content, RRT 1.04 ([1]; −20° C., 2M): 0.04% | Impurity content, RRT 1.21 ([1]; −20° C., 2M): 1.51% | Impurity content, RRT 1.26 ([1]; −20° C., 2M): 0.10% | Impurity content, RRT 1.43 ([1]; −20° C., 2M): 0.05% | TRS (total impurity content) ([1]; −20° C., 2M): 3.38% | Impurity content, RRT 0.95 ([1]; −20° C., 10D): 0.04% | Impurity content, RRT 0.98 ([1]; −20° C., 10D): 0.10% | Impurity content, RRT 0.99 ([1]; −20° C., 10D): 1.37% | Impurity content, RRT 1.02 ([1]; −20° C., 10D): 0.29% | Impurity content, RRT 1.04 ([1]; −20° C., 10D): 0.07% | Impurity content, RRT 1.21 ([1]; −20° C., 10D): 1.47% | Impurity content, RRT 1.26 ([1]; −20° C., 10D): 0.05% | TRS (total impurity content) ([1]; −20° C., 10D): 3.39% | inhibitory effect on the growth of LNCaP cells [2]: significant inhibitory effect | IC50 ([2]; Homo sapiens, 72 h, 3 days, read-out: IC50 of inhibition on cell proliferation): 0.067 µM
